Key:
[1] = molecular target: T1, C-C chemokine receptor type 4 (Homo sapiens, UniProt P51679); format: cell membranes, Membrane; conditions: chem-1; note: in other assays of this panel Not Active means under 50% inhibition at 10 µM
T1 sequence (P51679 whole entry): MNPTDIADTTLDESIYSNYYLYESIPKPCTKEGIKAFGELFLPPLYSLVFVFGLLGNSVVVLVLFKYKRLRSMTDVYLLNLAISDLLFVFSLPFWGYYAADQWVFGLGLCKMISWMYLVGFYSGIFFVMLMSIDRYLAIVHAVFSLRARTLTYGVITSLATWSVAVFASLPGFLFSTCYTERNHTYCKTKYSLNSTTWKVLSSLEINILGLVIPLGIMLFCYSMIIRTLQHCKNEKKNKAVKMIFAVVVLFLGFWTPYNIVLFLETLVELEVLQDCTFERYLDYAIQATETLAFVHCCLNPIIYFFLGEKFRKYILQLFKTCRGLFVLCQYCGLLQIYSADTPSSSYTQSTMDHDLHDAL

[2] = molecular target: T2, Muscarinic acetylcholine receptor M4 (Homo sapiens, UniProt P08173); format: cell membranes, CHO-K1, Membrane; conditions: cho-k1; note: in other assays of this panel Not Active means under 50% inhibition at 10 µM
T2 sequence (P08173 whole entry): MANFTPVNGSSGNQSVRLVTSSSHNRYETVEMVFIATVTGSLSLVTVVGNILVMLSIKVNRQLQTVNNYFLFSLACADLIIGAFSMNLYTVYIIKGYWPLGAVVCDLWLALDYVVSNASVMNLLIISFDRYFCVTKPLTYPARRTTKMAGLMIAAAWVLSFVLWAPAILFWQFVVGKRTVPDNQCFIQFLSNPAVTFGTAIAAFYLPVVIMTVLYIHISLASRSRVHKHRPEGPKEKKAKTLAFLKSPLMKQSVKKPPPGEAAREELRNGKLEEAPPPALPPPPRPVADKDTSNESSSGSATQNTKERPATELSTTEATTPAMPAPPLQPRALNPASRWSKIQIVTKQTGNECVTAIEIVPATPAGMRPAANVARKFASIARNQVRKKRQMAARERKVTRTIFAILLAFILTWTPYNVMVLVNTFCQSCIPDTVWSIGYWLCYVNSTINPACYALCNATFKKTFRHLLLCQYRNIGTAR

[3] = DRUGMATRIX: Glutamate, NMDA, Phencyclidine radioligand binding (ligand: [3H] TCP); format: cell membranes, Rattus norvegicus, Wistar, Cerebral cortex, Membrane; conditions: Not Active = under 50% inhibition at 10 µM
[4] = DRUGMATRIX: Glutamate, Kainate radioligand binding (ligand: [3H] Kainic acid); format: cell membranes, Rattus norvegicus, Wistar, Brain, Membrane; conditions: Not Active = under 50% inhibition at 10 µM
Leukotriene C4 synthase = molecular target: T3, Leukotriene C4 synthase (Cavia porcellus, UniProt A6XA80); experiment: biochemical; format: tissue-based, Lung;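 note: enzyme inhibition assay of leukotriene C4 synthase, using LTA4 as the substrate; in other assays of this panel Not Active means under 50% inhibition at 10 µM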
T3 sequence (A6XA80 whole entry): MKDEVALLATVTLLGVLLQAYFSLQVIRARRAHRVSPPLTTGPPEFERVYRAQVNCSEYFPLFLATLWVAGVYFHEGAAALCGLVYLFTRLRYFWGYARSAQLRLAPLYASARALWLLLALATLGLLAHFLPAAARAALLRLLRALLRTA

[5] = molecular target: Beta-3 adrenergic receptor (Homo sapiens, UniProt P13945); experiment: DRUGMATRIX: Adrenergic beta3 radioligand binding (ligand: [125I] Cyanopindolol); format: cell membranes, HEK293, Membrane; conditions: hek293; Not Active = under 50% inhibition at 10 µM
Sequence of Beta-3 adrenergic receptor (P13945 whole entry): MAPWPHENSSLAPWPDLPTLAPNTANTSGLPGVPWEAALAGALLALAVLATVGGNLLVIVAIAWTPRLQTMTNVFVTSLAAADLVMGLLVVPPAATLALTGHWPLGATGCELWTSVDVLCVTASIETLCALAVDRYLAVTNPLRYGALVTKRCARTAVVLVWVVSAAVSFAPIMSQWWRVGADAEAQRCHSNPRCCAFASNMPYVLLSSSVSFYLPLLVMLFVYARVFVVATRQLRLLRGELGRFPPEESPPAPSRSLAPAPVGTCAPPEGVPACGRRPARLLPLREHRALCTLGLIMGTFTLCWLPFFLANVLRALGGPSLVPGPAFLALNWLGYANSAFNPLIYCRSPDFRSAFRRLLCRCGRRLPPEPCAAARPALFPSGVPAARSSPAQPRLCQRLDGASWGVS

Histamine H2 receptor = Histamine H2 receptor (Homo sapiens, UniProt P25021); format: cell membranes, CHO-K1, Membrane; conditions: cho-k1; note: in other assays of this panel Not Active means under 50% inhibition at 10 µM
Sequence of Histamine H2 receptor (P25021 whole entry): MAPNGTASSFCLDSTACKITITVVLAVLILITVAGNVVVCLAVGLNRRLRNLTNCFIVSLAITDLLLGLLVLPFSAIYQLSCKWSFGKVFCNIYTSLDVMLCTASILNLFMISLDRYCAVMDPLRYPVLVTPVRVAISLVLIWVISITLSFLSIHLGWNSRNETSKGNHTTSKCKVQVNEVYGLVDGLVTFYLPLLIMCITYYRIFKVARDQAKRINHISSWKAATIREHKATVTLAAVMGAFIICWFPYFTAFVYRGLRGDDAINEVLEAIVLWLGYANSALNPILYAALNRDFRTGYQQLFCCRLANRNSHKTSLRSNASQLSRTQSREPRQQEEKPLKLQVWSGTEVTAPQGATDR

D(4) dopamine receptor = molecular target: T4, D(4) dopamine receptor (Homo sapiens, UniProt P21917); experiment: DRUGMATRIX: Dopamine D4.2 radioligand binding (ligand: [3H] Spiperone); format: cell membranes, CHO-K1, Membrane; conditions: cho-k1; Not Active = under 50% inhibition at 10 µM
T4 sequence (P21917 whole entry): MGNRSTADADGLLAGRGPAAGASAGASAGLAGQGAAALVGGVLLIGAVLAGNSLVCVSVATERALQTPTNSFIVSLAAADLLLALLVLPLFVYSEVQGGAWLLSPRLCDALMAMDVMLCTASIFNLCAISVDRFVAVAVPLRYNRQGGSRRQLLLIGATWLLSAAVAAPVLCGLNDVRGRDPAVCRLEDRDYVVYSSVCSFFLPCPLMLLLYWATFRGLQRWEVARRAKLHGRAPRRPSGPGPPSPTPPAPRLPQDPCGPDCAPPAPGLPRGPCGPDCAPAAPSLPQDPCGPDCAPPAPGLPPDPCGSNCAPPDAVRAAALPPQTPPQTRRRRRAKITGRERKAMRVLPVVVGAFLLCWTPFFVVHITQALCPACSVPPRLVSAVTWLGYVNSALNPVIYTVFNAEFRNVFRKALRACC

[6] = molecular target: Sodium-dependent dopamine transporter (Homo sapiens, UniProt Q01959); experiment: DRUGMATRIX: Dopamine Transporter radioligand binding (ligand: [125I] RTI-55); format: cell membranes, CHO-K1, Membrane; conditions: cho-k1; Not Active = under 50% inhibition at 10 µM
Sequence of Sodium-dependent dopamine transporter (Q01959 whole entry): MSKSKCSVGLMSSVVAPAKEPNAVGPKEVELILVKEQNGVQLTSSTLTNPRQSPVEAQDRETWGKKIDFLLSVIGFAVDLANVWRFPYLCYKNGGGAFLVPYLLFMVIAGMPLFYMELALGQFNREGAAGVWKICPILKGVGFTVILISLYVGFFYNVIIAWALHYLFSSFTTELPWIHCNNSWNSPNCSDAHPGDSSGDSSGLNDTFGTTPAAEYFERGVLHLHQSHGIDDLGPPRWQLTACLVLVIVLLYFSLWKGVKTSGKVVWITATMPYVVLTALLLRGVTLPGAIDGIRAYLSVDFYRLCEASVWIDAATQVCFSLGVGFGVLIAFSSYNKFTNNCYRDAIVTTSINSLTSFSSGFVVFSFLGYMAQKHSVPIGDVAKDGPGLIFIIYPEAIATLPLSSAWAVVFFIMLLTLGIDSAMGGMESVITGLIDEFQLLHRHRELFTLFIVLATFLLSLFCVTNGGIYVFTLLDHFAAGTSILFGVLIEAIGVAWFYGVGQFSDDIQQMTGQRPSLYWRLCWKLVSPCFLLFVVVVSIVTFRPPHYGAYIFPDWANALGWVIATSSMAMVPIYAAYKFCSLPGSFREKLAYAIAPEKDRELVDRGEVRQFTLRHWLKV

[7] = DRUGMATRIX: Sigma2 radioligand binding (ligand: [3H] Ifenprodil); format: cell membranes, Rattus norvegicus, Wistar, Brain, Membrane; conditions: Not Active = under 50% inhibition at 10 µM
[8] = molecular target: C-C chemokine receptor type 2 (Homo sapiens, UniProt P41597); format: cell membranes, CHO-K1, Membrane; conditions: cho-k1; note: in other assays of this panel Not Active means under 50% inhibition at 10 µM
Sequence of C-C chemokine receptor type 2 (P41597 whole entry): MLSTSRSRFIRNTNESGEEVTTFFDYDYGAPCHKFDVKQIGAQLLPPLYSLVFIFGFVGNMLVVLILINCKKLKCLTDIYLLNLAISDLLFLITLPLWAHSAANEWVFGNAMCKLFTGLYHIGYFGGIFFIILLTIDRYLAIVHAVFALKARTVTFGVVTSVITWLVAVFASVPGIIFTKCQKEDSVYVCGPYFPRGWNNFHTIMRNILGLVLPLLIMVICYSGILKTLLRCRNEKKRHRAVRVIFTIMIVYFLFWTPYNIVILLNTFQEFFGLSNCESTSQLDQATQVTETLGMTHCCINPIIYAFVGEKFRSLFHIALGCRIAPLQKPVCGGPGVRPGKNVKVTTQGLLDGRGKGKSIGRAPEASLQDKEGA

Substance-K receptor = molecular target: T5, Substance-K receptor (Homo sapiens, UniProt P21452); format: cell membranes, CHO, Membrane; conditions: cho; note: in other assays of this panel Not Active means under 50% inhibition at 10 µM
T5 sequence (P21452 whole entry): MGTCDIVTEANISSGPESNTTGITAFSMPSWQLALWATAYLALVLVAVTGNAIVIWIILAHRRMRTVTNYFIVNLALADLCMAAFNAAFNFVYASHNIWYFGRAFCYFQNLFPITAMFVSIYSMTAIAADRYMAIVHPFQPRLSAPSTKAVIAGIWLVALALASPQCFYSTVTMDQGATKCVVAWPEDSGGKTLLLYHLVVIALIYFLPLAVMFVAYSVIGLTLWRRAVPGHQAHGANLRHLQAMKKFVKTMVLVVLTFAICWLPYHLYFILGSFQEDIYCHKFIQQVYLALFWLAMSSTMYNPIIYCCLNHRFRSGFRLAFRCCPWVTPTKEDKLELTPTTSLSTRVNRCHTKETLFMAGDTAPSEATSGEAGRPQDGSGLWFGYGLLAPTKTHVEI

[9] = molecular target: Tyrosine-protein kinase Fyn (Homo sapiens, UniProt P06241); experiment: biochemical; format: cell-based, Insect cells; conditions: insect cells
Sequence of Tyrosine-protein kinase Fyn (P06241 whole entry): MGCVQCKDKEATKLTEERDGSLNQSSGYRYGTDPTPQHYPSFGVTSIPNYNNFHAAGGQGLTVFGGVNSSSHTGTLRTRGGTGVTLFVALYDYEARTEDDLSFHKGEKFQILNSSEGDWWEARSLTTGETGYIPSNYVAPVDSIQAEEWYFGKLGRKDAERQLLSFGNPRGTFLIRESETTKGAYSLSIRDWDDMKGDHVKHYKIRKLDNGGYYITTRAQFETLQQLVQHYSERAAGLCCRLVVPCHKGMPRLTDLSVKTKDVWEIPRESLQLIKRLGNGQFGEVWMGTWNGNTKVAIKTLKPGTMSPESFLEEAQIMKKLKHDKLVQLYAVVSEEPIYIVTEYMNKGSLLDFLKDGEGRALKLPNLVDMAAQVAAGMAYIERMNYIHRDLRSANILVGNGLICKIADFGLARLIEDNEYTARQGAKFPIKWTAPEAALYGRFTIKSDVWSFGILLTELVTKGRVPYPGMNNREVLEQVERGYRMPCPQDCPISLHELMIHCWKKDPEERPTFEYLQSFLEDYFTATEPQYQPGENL

[10] = DRUGMATRIX: Purinergic P2X radioligand binding (ligand: [3H] alpha, beta-Methylene-ATP); format: cell membranes, Oryctolagus cuniculus, New Zealand albino, Urinary bladder, Membrane; conditions: Not Active = under 50% inhibition at 10 µM
Cytochrome P450 2C19 = Cytochrome P450 2C19 (Homo sapiens, UniProt P33261); conditions: bti-tn-5b1-4; note: in other assays of this panel Not Active means under 50% inhibition at 10 µM
Sequence of Cytochrome P450 2C19 (P33261 whole entry): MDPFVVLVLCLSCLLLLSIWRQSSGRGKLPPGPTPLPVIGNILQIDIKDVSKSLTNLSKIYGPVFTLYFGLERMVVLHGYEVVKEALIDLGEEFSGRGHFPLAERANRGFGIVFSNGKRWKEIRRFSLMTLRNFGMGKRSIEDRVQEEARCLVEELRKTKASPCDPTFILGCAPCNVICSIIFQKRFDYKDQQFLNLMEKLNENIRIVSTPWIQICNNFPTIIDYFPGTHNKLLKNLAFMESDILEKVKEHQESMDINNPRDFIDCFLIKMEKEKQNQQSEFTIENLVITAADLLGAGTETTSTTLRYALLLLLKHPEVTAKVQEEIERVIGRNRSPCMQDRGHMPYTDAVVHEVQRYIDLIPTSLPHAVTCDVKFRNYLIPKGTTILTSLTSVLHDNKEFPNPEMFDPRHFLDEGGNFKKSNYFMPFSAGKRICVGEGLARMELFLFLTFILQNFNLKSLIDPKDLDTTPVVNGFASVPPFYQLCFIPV

[11] = DRUGMATRIX: Phosphodiesterase PDE3 enzyme inhibition (substrate: [3H]cAMP + cAMP); format: tissue-based, Homo sapiens; conditions: platelet; Not Active = under 50% inhibition at 10 µM
[12] = molecular target: 5-hydroxytryptamine receptor 4 (Cavia porcellus, UniProt O70528); format: cell membranes, Dunkin-Hartley, Striatum, Membrane; note: in other assays of this panel Not Active means under 50% inhibition at 10 µM
Sequence of 5-hydroxytryptamine receptor 4 (O70528 whole entry): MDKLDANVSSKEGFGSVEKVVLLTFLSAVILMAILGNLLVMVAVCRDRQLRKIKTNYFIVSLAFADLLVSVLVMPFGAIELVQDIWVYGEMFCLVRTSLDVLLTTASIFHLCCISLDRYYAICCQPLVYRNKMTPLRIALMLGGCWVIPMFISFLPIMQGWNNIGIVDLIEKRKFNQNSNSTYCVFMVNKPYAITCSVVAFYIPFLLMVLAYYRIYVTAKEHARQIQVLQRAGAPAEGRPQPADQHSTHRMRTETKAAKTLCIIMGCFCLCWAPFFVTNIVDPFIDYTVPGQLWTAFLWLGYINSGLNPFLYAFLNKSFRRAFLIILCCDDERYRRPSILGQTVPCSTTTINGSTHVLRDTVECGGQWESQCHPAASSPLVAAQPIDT

Oc1cccc2cccnc12 [OXYQUINOLINE]
Not Active: IC50 [1] | IC50 [2] | IC50 [3] | Ki [3] | IC50 [4] | Ki [4] | IC50 (Leukotriene C4 synthase) | IC50 [5] | IC50 (Histamine H2 receptor) | IC50 (D(4) dopamine receptor) | IC50 [6] | IC50 [7] | Ki [7] | IC50 [8] | IC50 (Substance-K receptor) | IC50 [9] | IC50 [10] | Ki [10] | IC50 (Cytochrome P450 2C19) | Ki (Cytochrome P450 2C19) | IC50 [11] | Ki [11] | IC50 [12]

CN(C)[C@@H]1C(O)=C(C(N)=O)C(=O)[C@@]2(O)C(O)=C3C(=O)c4c(O)cccc4[C@@](C)(O)[C@H]3[C@H](O)[C@@H]12 [OXYTETRACYCLINE]
Not Active: IC50 [1] | IC50 [2] | IC50 [3] | Ki [3] | IC50 [4] | Ki [4] | IC50 (Leukotriene C4 synthase) | IC50 [5] | IC50 (Histamine H2 receptor) | IC50 (D(4) dopamine receptor) | IC50 [6] | IC50 [7] | Ki [7] | IC50 [8] | IC50 (Substance-K receptor) | IC50 [9] | IC50 [10] | Ki [10] | IC50 (Cytochrome P450 2C19) | Ki (Cytochrome P450 2C19) | IC50 [11] | Ki [11] | IC50 [12]

CC(C)(S)[C@@H](N)C(=O)O [PENICILLAMINE]
Not Active: IC50 [1] | IC50 [2] | IC50 [3] | Ki [3] | IC50 [4] | Ki [4] | IC50 (Leukotriene C4 synthase) | IC50 [5] | IC50 (Histamine H2 receptor) | IC50 (D(4) dopamine receptor) | IC50 [6] | IC50 [7] | Ki [7] | IC50 [8] | IC50 (Substance-K receptor) | IC50 [9] | IC50 [10] | Ki [10] | IC50 (Cytochrome P450 2C19) | Ki (Cytochrome P450 2C19) | IC50 [11] | Ki [11] | IC50 [12]

CC(=O)CCCCn1c(=O)c2c(ncn2C)n(C)c1=O [PENTOXIFYLLINE]
Not Active: IC50 [1] | IC50 [2] | IC50 [3] | Ki [3] | IC50 [4] | Ki [4] | IC50 (Leukotriene C4 synthase) | IC50 [5] | IC50 (Histamine H2 receptor) | IC50 (D(4) dopamine receptor) | IC50 [6] | IC50 [7] | Ki [7] | IC50 [8] | IC50 (Substance-K receptor) | IC50 [9] | IC50 [10] | Ki [10] | IC50 (Cytochrome P450 2C19) | Ki (Cytochrome P450 2C19) | IC50 [11] | Ki [11] | IC50 [12]

O=C1NC(=O)C(c2ccccc2)(c2ccccc2)N1 [PHENYTOIN]
Not Active: IC50 [1] | IC50 [2] | IC50 [3] | Ki [3] | IC50 [4] | Ki [4] | IC50 (Leukotriene C4 synthase) | IC50 [5] | IC50 (Histamine H2 receptor) | IC50 (D(4) dopamine receptor) | IC50 [6] | IC50 [7] | Ki [7] | IC50 [8] | IC50 (Substance-K receptor) | IC50 [9] | IC50 [10] | Ki [10] | IC50 (Cytochrome P450 2C19) | Ki (Cytochrome P450 2C19) | IC50 [11] | Ki [11] | IC50 [12]

From ChEMBL document CHEMBL1909046, “DrugMatrix in vitro pharmacology data”
